Measurements published in US20190134005A1 (BioMarin Pharmaceutical Inc., priority 2016, published 2019).

Molecular target: T1, human CGT (Homo sapiens, UniProt Q16880)
T1 sequence (Q16880 21-541): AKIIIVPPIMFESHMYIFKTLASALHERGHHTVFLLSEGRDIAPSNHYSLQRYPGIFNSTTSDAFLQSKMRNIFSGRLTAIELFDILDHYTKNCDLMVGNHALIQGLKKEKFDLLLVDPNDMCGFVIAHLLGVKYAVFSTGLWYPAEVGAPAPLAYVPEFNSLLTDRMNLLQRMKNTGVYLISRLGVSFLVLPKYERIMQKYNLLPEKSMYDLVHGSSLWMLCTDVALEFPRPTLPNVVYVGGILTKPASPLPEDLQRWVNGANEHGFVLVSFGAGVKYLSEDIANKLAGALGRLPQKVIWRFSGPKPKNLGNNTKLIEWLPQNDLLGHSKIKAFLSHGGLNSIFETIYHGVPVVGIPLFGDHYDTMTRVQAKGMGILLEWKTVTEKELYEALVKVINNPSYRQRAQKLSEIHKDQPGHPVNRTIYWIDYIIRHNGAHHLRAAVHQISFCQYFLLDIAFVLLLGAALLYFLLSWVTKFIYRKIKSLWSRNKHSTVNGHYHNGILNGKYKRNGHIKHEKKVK
Experiment: CGT Enzyme Assay (Biological Example 2, RapidFire/MS/MS method with 0.01% Tween 80 added)
Type: biochemical
Conditions: enzymatic assay, CHO/CGT lysate
Outline: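 Lysate of CHO cells transfected with full-length human CGT, 0.5% DMSO final, 0.01% Tween 80 added; reactions stopped with methanol:acetonitrile holding internal standard. C6-NBD-dihydro-galactosylceramide and C6-NBD-dihydro-ceramide measured by RapidFire/MS/MS (ESI negative), product peak area normalized to internal standard.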

SMILES | IC50
CC1(C)[C@H](c2cccc(OC(F)(F)F)c2)N(c2ccccc2)C(=O)N1c1ccccc1 [Example 26-2, (S)-4,4-dimethyl-1,3-diphenyl-5-(3-(trifluoromethoxy)phenyl)imidazolidin-2-one] | 1 to 10 µM
CC[C@@]1(C)[C@H](c2cccc(C#N)c2)N(c2ccc(Cl)cc2)C(=O)N1c1ccc(Cl)cc1 [Example 34-1, 3-((4S,5S)-1,3-bis(4-chlorophenyl)-5-ethyl-5-methyl-2-oxoimidazolidin-4-yl)benzonitrile] | < 1 µM
C[C@@H]1[C@@H](c2cccc(OC(F)(F)F)c2)N(c2ccc(Cl)cc2)C(=O)N1c1ccc(Cl)cc1 [Example 4-2, (4R,5R)-1,3-bis(4-chlorophenyl)-4-methyl-5-(3-(trifluoromethoxy)phenyl)imidazolidin-2-one] | 10 to 30 µM
Cc1ccc(N2C(=O)N(c3ccc(C#N)cc3)C(C)(C)[C@H]2c2cccc(C#N)c2)cc1 [Example 54-1, (R)-3-(1-(4-cyanophenyl)-5,5-dimethyl-2-oxo-3-(p-tolyl)imidazolidin-4-yl)benzonitrile] | 10 to 30 µM
O=C1N(c2ccc(Cl)cc2)[C@H]2CCC[C@@]2(c2cccc(OC(F)(F)F)c2)N1c1ccc(Cl)cc1 [Example 12-1, (3aS,6aS)-1,3-bis(4-chlorophenyl)-3a-(3-(trifluoromethoxy)phenyl)hexahydrocyclopenta[d]imidazol-2(1H)-one] | 1 to 10 µM
O=C1N(c2ccc(Cl)cc2)[C@@H](c2cccc(OC(F)(F)F)c2)C2(CCCC2)N1c1ccc(Cl)cc1 [Example 15-3, (S)-1,3-bis(4-chlorophenyl)-4-(3-(trifluoromethoxy)phenyl)-1,3-diazaspiro[4.4]nonan-2-one] | 10 to 30 µM
CC1(C)[C@@H](c2cccc(OC(F)F)c2)N(c2ccc(Cl)cc2)C(=O)N1c1ccc(Cl)cc1 [Example 9-1, (R)-1,3-bis(4-chlorophenyl)-5-(3-(difluoromethoxy)phenyl)-4,4-dimethylimidazolidin-2-one] | 10 to 30 µM
Cc1ccc(N2C(=O)N(c3ccc(Cl)cc3)[C@H](c3cccc(OC(F)(F)F)c3)C2(C)C)cc1 [Example 56-1, (R)-1-(4-chlorophenyl)-4,4-dimethyl-3-(p-tolyl)-5-(3-(trifluoromethoxy)phenyl)imidazolidin-2-one] | 10 to 30 µM
CC1(C)[C@@H](c2cccc(OC(F)(F)F)c2)N(c2ccc(Cl)cc2)C(=O)N1c1ccc(C#N)cc1 [Example 41-1, (R)-4-(3-(4-chlorophenyl)-5,5-dimethyl-2-oxo-4-(3-(trifluoromethoxy)phenyl)imidazolidin-1-yl)benzonitrile] | 10 to 30 µM
CC[C@]1(C)[C@H](c2cccc(C#N)c2)N(c2ccc(Cl)cc2)C(=O)N1c1ccc(Cl)cc1 [Example 34-4, 3-((4S,5R)-1,3-bis(4-chlorophenyl)-5-ethyl-5-methyl-2-oxoimidazolidin-4-yl)benzonitrile] | 10 to 30 µM
CC[C@]1(C)[C@@H](c2cccc(OC(F)(F)F)c2)N(c2ccc(Cl)cc2)C(=O)N1c1ccc(Cl)cc1 [Example 19-1, (4R,5R)-1,3-bis(4-chlorophenyl)-4-ethyl-4-methyl-5-(3-(trifluoromethoxy)phenyl)imidazolidin-2-one] | 1 to 10 µM
N#Cc1ccc(N2C(=O)N(c3ccc(Cl)cc3)[C@@H](c3cccc(OC(F)(F)F)c3)C23COC3)cc1 [Example 46-2, (S)-4-(7-(4-chlorophenyl)-6-oxo-8-(3-(trifluoromethoxy)phenyl)-2-oxa-5,7-diazaspiro[3.4]octan-5-yl)benzonitrile] | 1 to 10 µM
O=C1N(c2ccc(Cl)cc2)[C@@H]2CCC[C@]2(c2cccc(OC(F)(F)F)c2)N1c1ccc(Cl)cc1 [Example 12-2, (3aR,6aR)-1,3-bis(4-chlorophenyl)-3a-(3-(trifluoromethoxy)phenyl)hexahydrocyclopenta[d]imidazol-2(1H)-one] | 10 to 30 µM
CCC[C@@]1(C)[C@H](c2cccc(OC(F)(F)F)c2)N(c2ccc(C#N)cc2)C(=O)N1c1ccc(C#N)cc1 [Example 52-5, 4,4′-((4S,5S)-4-methyl-2-oxo-4-propyl-5-(3-(trifluoromethoxy)phenyl)imidazolidine-1,3-diyl)dibenzonitrile] | < 1 µM
CCC1(CC)[C@@H](c2cccc(OC(F)(F)F)c2)N(c2ccc(Cl)cc2)C(=O)N1c1ccc(Cl)cc1 [Example 17-1, (R)-1,3-bis(4-chlorophenyl)-4,4-diethyl-5-(3-(trifluoromethoxy)phenyl)imidazolidin-2-one] | < 1 µM
N#Cc1ccc(N2C(=O)N(c3ccc(C#N)cc3)C3(COC3)[C@@H]2c2cccc(OC(F)(F)F)c2)cc1 [Example 36-2] | < 1 µM
C[C@H]1[C@H](c2cccc(OC(F)(F)F)c2)N(c2ccc(Cl)cc2)C(=O)N1c1ccc(Cl)cc1 [Example 4-1, (4S,5S)-1,3-bis(4-chlorophenyl)-4-methyl-5-(3-(trifluoromethoxy)phenyl)imidazolidin-2-one] | 10 to 30 µM

SMILES | IC50
C[C@H]1[C@@H](c2ccccc2)N(c2ccc(Br)cc2)C(=O)N1c1ccc(Br)cc1 [Example 2-3, (4S,5R)-1,3-bis(4-bromophenyl)-4-methyl-5-phenylimidazolidin-2-one] | 1 to 10 µM
O=C1N(c2ccc(Br)cc2)C2CCCCC2N1c1ccc(Br)cc1 (stereo not shown) [Example 1] | 30 to 100 µM
N#Cc1cccc([C@@]23CCCC[C@@H]2N(c2ccc(Cl)cc2)C(=O)N3c2ccc(Cl)cc2)c1 [Example 14-2, 3-((3aS,7aS)-1,3-bis(4-chlorophenyl)-2-oxooctahydro-3aH-benzo[d]imidazol-3a-yl)benzonitrile] | 10 to 30 µM
CC[C@@]1(C)[C@H](c2cccc(OC(F)(F)F)c2)N(c2ccc(Cl)cc2)C(=O)N1c1ccc(Cl)cc1 [Example 19-3, (4S,5S)-1,3-bis(4-chlorophenyl)-4-ethyl-4-methyl-5-(3-(trifluoromethoxy)phenyl)imidazolidin-2-one] | < 1 µM
CC1(C)[C@@H](c2cccc(OC(F)(F)F)c2)N(c2ccc(C#N)cc2)C(=O)N1c1ccc(Cl)cc1 [Example 40-1, (R)-4-(3-(4-chlorophenyl)-4,4-dimethyl-2-oxo-5-(3-(trifluoromethoxy)phenyl)imidazolidin-1-yl)benzonitrile] | 10 to 30 µM
CCC[C@@]1(C)[C@@H](c2cccc(OC(F)(F)F)c2)N(c2ccc(C#N)cc2)C(=O)N1c1ccc(C#N)cc1 [Example 52-6, 4,4′-((4S,5R)-4-methyl-2-oxo-4-propyl-5-(3-(trifluoromethoxy)phenyl)imidazolidine-1,3-diyl)dibenzonitrile] | 10 to 30 µM
CCC[C@]1(C)[C@H](c2cccc(OC(F)(F)F)c2)N(c2ccc(Cl)cc2)C(=O)N1c1ccc(Cl)cc1 [Example 22-3, (4R,5S)-1,3-bis(4-chlorophenyl)-4-methyl-4-propyl-5-(3-(trifluoromethoxy)phenyl)imidazolidin-2-one] | < 1 µM
N#Cc1cccc([C@]23CCCC[C@H]2N(c2ccc(Cl)cc2)C(=O)N3c2ccc(Cl)cc2)c1 [Example 14-1, 3-((3aR,7aR)-1,3-bis(4-chlorophenyl)-2-oxooctahydro-3aH-benzo[d]imidazol-3a-yl)benzonitrile] | 1 to 10 µM
Cc1ccc(N2C(=O)N(c3ccc(C)cc3)C3(CCCC3)[C@@H]2c2cccc(OC(F)(F)F)c2)cc1 [Example 35-2, (S)-1,3-di-p-tolyl-4-(3-(trifluoromethoxy)phenyl)-1,3-diazaspiro[4.4]nonan-2-one] | < 1 µM
N#Cc1ccc(N2C(=O)N(c3ccc(C#N)cc3)C3(COC3)[C@H]2c2cccc(OC(F)(F)F)c2)cc1 [Example 36-1] | 10 to 30 µM
CC1(C)[C@H](c2cccc(OC(F)(F)F)c2)N(c2cccc(Cl)c2)C(=O)N1c1cccc(Cl)c1 [Example 28-2, (S)-1,3-bis(3-chlorophenyl)-4,4-dimethyl-5-(3-(trifluoromethoxy)phenyl)imidazolidin-2-one] | < 1 µM
C[C@H]1[C@H](c2ccccc2)N(c2ccc(Br)cc2)C(=O)N1c1ccc(Br)cc1 [Example 2-1, (4S,5S)-1,3-bis(4-bromophenyl)-4-methyl-5-phenylimidazolidin-2-one] | 30 to 100 µM
C[C@@H]1[C@@H](c2ccccc2)N(c2ccc(Br)cc2)C(=O)N1c1ccc(Br)cc1 [Example 2-2, (4R,5R)-1,3-bis(4-bromophenyl)-4-methyl-5-phenylimidazolidin-2-one] | < 1 µM
O=C1N(c2ccc(Cl)cc2)C2CCOC[C@@]2(c2cccc(OC(F)(F)F)c2)N1c1ccc(Cl)cc1 (stereo partly drawn) [Example 31-2, (3aS)-1,3-bis(4-chlorophenyl)-3a-(3-(trifluoromethoxy)phenyl)hexahydropyrano[3,4-d]imidazol-2(3H)-one] | < 1 µM
Cc1ccc(N2C(=O)N(c3ccc(C#N)cc3)C(C)(C)[C@@H]2c2cccc(C#N)c2)cc1 [Example 54-2, (S)-3-(1-(4-cyanophenyl)-5,5-dimethyl-2-oxo-3-(p-tolyl)imidazolidin-4-yl)benzonitrile] | < 1 µM
Cc1ccc(N2C(=O)N(c3ccc(Cl)cc3)[C@@H](c3cccc(OC(F)(F)F)c3)C2(C)C)cc1 [Example 56-2, (S)-1-(4-chlorophenyl)-4,4-dimethyl-3-(p-tolyl)-5-(3-(trifluoromethoxy)phenyl)imidazolidin-2-one] | < 1 µM
C[C@]1(C(F)(F)F)[C@@H](c2cccc(OC(F)(F)F)c2)N(c2ccc(Cl)cc2)C(=O)N1c1ccc(Cl)cc1 [Example 25-2] | 1 to 10 µM
